“Also recorded” adds a separate entry of the source.
Columns and labels:
Type in all cases: cell-based
[1] = system: BT-20 human mammary adenocarcinoma cells; assay: Effect on intact cells in culture (growth, morphology, DAPI)
Description: BT-20 human breast adenocarcinoma cells were cultured in Eagle's minimal essential medium nonessential amino acids and Earle's balanced salts supplement with 10% fetal bovine serum. Media were renewed as for MCF-10A cells. […] The coverslips were rinsed and the cells fixed in methanol followed by addition of fluorescent dye 4′,6-diamidino-2-phenylindole (DAPI) as described (Wolvetang et al., 1994, FEBS Lett. 339:40-44). Cells were observed and photographed at a primary magnification of 400×.

[2] = target: T1, tNOX activity of HeLa S cells (Homo sapiens, UniProt Q16206); assay: NADH oxidase of intact HeLa (HeLa S) cells
T1 construct: Response of the NADH oxidase of HeLa S cells to (−)-epigallocatechin gallate (EGCg) alone; endogenous in cells; methods say ATCC CCL2
T1 sequence (Q16206 1-610): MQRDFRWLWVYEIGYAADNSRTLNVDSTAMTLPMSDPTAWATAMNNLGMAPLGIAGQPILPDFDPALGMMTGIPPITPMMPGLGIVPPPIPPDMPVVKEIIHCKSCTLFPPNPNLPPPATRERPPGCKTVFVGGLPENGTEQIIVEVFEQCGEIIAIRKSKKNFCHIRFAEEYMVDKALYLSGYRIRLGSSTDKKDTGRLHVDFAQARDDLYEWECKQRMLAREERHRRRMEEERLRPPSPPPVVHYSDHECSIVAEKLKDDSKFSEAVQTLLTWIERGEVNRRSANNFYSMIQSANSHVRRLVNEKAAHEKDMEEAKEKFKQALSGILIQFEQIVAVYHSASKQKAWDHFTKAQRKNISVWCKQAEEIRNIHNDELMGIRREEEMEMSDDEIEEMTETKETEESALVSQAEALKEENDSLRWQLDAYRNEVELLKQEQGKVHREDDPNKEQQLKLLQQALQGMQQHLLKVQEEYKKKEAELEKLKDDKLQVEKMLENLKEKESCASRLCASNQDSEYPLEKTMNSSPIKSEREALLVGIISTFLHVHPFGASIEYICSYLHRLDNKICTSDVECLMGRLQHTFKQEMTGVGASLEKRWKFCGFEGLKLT
Description: HeLa (ATCC CCL2) cells were grown in 150 cm^2 flasks in Minimal Essential Medium (Gibco), pH 7.4, at 37° C. with 10% bovine calf serum (heat-inactivated), plus 50 mg/l gentamicin sulfate (Sigma). Cells were trypsinized with Sigma IX trypsin for 1 to 2 min and harvested by scraping and taken up in 140 mM NaCl, 5 mM KCl, 0.7 mM Na2HPO4 and 25 mM Tris, pH 7.4, to a final cell concentration of 0.1 g wet weight (gww) per ml.
NADH oxidase activity was determined as the disappearance of NADH measured at 340 nm in a reaction mixture containing 25 mM Tris-Mes buffer (pH 7.2), 1 mM KCN, and 150 μM NADH at 37° C. Activity was measured using a Hitachi U3210 spectrophotometer with stirring and continuous recording over two intervals of 5 min each. A millimolar extinction coefficient of 6.22 was used to determine specific activity.

CNOX = target: T2, CNOX (Mus musculus, UniProt Q8BHR2); assay: CNOX activity of intact 4T1 cells; conditions: not effective up to and including this concentration
T2 construct: endogenous in cells; host or cells: 4T1 mouse mammary carcinoma cells (intact)
T2 sequence (Q8BHR2 1-643): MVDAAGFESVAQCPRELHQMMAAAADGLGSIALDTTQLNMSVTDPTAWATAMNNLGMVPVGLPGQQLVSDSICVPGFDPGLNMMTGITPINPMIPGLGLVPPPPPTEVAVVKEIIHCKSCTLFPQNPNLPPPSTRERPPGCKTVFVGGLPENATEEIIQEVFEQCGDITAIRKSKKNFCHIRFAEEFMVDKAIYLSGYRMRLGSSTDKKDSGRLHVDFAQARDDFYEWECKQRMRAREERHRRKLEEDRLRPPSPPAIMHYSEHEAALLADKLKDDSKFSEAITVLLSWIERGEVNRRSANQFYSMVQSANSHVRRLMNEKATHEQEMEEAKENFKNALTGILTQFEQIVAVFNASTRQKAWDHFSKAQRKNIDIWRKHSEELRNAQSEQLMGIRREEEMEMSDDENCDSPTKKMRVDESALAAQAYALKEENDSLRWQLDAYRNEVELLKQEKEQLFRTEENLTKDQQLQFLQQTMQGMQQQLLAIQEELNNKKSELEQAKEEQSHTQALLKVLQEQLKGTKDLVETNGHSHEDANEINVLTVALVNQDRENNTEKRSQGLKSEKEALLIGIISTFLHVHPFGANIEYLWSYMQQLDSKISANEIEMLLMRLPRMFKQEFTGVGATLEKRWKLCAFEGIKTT
Description: A mouse mammary tumor subpopulation line 4T1 arising from a BALB/cf C3H mouse was grown in DME-10, Dulbecco's modified Eagle's medium supplemented with 5% fetal calf serum, 5% newborn calf serum, 1 mM mixed non-essential amino acids, 2 mM L-glutamine, penicillin (100 units/ml), and streptomycin (100 μg/ml) (Miller et al., 1987, Brit. J. Can. 56:561-569 and Miller et al., 1990, Invasion Metastasis 10:101-112).
NADH oxidase activity was determined as the disappearance of NADH measured at 340 nm in a reaction mixture containing 25 mM Tris-Mes buffer (pH 7.2), 1 mM KCN, and 150 μM NADH at 37° C. Activity was measured at 340 nm with reference at 430 nm using an SLM Aminco DW-2000 spectrophotometer (Milton Roy, Rochester, N.Y.) in the dual beam mode of operation with stirring and continuous recording over two intervals of 5 min each. A millimolar extinction coefficient of 6.22 was used to determine specific activity.

[3] = system: MCF-10A human mammary epithelial (non-cancer) cells; assay: Effect on intact cells in culture (growth, morphology, DAPI)
[4] = 10 μM EGCg added at t=0, 96 h, FIG. 4
[5] = 10^−6 M EGCg twice daily for 96 h

## (−) - epigallocatechin gallate [EGCg]
[1]; [4]
  Fate of treated cells: did not recover and died; also recorded: stopped growing and died
[1]; [5]
  Reduction of cell diameter: about 25%
  Reduction of cell number: about 25%
  Reduction of cell volume: 50%
[1]; 10^−6 M EGCg, 72 h
  Response of the cell line: no response
[1]; 10 or 50 μM EGCg, 96 h, FIG. 5
  Condensed chromatin (DAPI staining): characteristic of apoptosis
[2]
  EGCg concentration at which NOX activity was stimulated: ≥ 10^−5 M
[2]; EGCg alone, FIG. 12
  EGCg concentration for maximal inhibition of tNOX activity: 0.1 µM
CNOX
  Concentration effective in inhibiting the residual CNOX activity: > 10^−6 M
[3]; [4]
  Fate of treated cells: quickly recovered and eventually grew normally; also recorded: recovered fully
[3]; [5]
  Growth rate and cell diameters: unaffected or slightly increased
[3]; 10^−6 M EGCg, 72 h
  Response of the cell line: no response
[3]; EGCg, unaffected except at very high doses of 10^−4 M, FIG. 2C
  Growth of cells: unaffected; also recorded: much less affected

Source: US6652890B2, “Tea catechins as cancer specific proliferation inhibitors” (Purdue Research Foundation, priority 1999, dated 2003)
